Assay results as given in patent publication US20220340597A1, “HEXAHYDRO-1H-PYRAZINO[1,2-A]PYRAZINE COMPOUNDS FOR THE TREATMENT OF AUTOIMMUNE DISEASE” (Hoffmann-La Roche Inc., priority 2019, published 2022).

Tests used:
human TLR7 = target: T1, human TLR7 (Homo sapiens, UniProt Q9NYK1); test: HEK293-Blue-hTLR-7 cells assay; format: cell-based; conditions: HEK293-Blue-hTLR7 cells, R848 stimulation, 20 hrs, SEAP reporter; read-out: HEK/hTLR7 IC50
T1 construct: host or cells: HEK293 (HEK-Blue hTLR7)
T1 sequence (Q9NYK1 27-1049): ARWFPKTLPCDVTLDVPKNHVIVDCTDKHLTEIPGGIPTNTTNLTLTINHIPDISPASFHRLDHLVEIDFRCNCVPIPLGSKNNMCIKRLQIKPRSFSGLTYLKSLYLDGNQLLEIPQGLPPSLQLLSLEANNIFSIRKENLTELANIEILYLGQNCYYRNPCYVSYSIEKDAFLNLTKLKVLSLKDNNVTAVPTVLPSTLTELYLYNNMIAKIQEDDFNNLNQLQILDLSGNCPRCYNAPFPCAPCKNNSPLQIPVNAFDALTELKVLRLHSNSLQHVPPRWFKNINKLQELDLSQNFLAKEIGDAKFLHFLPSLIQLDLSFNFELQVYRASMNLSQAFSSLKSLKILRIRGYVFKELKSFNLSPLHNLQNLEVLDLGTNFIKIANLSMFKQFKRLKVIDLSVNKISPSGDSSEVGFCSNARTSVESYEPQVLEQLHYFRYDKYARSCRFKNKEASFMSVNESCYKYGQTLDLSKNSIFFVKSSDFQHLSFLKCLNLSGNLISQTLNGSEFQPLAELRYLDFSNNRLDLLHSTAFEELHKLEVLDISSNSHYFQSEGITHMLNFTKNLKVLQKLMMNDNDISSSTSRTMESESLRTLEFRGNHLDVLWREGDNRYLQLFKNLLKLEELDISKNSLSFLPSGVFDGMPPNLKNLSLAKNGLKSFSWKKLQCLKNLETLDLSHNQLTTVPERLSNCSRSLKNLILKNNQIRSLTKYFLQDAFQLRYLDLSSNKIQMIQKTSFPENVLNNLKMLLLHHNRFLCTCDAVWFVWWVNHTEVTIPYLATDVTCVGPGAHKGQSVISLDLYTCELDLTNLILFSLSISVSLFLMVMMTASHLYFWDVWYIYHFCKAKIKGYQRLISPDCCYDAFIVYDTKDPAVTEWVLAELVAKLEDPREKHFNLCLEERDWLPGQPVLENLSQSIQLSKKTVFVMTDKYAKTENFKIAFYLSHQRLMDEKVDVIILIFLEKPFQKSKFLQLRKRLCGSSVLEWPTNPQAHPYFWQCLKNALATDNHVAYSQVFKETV

human TLR8 = target: T2, human TLR8 (Homo sapiens, UniProt Q9NR97); test: HEK293-Blue-hTLR-8 cells assay
T2 sequence (Q9NR97 27-1041): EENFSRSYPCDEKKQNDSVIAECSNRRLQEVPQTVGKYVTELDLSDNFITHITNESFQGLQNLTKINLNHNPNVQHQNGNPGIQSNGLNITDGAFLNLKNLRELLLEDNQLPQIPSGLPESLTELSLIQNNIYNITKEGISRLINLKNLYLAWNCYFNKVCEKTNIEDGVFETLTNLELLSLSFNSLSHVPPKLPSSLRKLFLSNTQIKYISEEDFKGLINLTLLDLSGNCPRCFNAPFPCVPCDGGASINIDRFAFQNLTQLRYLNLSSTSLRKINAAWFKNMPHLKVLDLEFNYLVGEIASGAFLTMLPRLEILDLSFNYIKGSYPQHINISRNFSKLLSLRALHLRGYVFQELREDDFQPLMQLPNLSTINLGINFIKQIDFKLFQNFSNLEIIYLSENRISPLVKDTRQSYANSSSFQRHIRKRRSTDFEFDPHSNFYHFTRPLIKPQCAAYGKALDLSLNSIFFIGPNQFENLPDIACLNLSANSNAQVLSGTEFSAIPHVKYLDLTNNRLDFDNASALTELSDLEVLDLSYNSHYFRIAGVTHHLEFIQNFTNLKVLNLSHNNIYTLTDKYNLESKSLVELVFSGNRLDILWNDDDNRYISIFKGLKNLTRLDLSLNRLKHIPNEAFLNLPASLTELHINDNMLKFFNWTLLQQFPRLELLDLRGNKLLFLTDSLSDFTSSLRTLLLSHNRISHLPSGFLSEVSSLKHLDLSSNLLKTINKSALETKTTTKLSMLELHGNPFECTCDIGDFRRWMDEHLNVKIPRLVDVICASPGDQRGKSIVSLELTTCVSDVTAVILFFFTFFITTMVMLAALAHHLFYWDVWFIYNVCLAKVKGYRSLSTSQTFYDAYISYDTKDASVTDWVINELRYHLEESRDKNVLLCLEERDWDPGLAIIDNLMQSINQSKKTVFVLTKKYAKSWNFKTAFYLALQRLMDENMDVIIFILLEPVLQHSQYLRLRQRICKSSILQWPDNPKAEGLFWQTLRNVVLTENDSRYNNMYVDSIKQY

IC50 (human TLR7) [nM] | IC50 (human TLR8) [nM] | SMILES
23 | 24 | [2H]c1ccc2c(N3C[C@@H]4CN(c5ccc(CCN6C[C@@H](N)[C@@H](F)C6)nc5)CCN4[C@@H](C)C3)ccc(C#N)c2n1 [Example 117, 5-[(4S,9aR)-8-[6-[2-[(3R,4S)-3-amino-4-fluoro-pyrrolidin-1-yl]ethyl]-3-pyridyl]-4-methyl-3,4,6,7,9,9a-hexahydro-1H-pyrazino[1,2-a]pyrazin-2-yl]-2-deuterio-quinoline-8-carbonitrile]
4 | 6 | [2H]c1ccc2c(N3C[C@@H]4CN(c5ncc(N6CC(C)(N)C6)cc5C)CCN4[C@@H](C)C3)ccc(C#N)c2n1 [Example 118, 5-[(4S,9aR)-8-[5-(3-amino-3-methyl-azetidin-1-yl)-3-methyl-2-pyridyl]-4-methyl-3,4,6,7,9,9a-hexahydro-1H-pyrazino[1,2-a]pyrazin-2-yl]-2-deuterio-quinoline-8-carbonitrile]
5 | 1 | [2H]c1ccc2c(N3C[C@@H]4CN(c5ccc6c(n5)CCNC6)CCN4[C@@H](C)C3)ccc(C#N)c2n1 [Example 121, 5-[(4S,9aR)-4-methyl-8-(5,6,7,8-tetrahydro-1,6-naphthyridin-2-yl)-3,4,6,7,9,9a-hexahydro-1H-pyrazino[1,2-a]pyrazin-2-yl]-2-deuterio-quinoline-8-carbonitrile]
9 | 3 | [2H]c1ccc2c(N3C[C@@H]4CN(c5ccc(CCN6C[C@H](OC)[C@@H](N)C6)cn5)CCN4[C@@H](C)C3)ccc(C#N)c2n1 [Example 122, 5-[(4S,9aR)-8-[5-[2-[(3S,4S)-3-amino-4-methoxy-pyrrolidin-1-yl]ethyl]-2-pyridyl]-4-methyl-3,4,6,7,9,9a-hexahydro-1H-pyrazino[1,2-a]pyrazin-2-yl]-2-deuterio-quinoline-8-carbonitrile]
27 | 6 | [2H]c1ccc2c(N3C[C@@H]4CN(c5ccc(CN6C[C@@H](N)[C@H](OC)C6)c(C)n5)CCN4[C@@H](C)C3)ccc(C#N)c2n1 [Example 123, 5-[(4S,9aR)-8-[5-[[(3R,4R)-3-amino-4-methoxy-pyrrolidin-1-yl]methyl]-6-methyl-2-pyridyl]-4-methyl-3,4,6,7,9,9a-hexahydro-1H-pyrazino[1,2-a]pyrazin-2-yl]-2-deuterio-quinoline-8-carbonitrile]
14 | 51 | C[C@@H]1CN(c2ccc(C#N)c3ncccc23)C[C@@H]2CN(CCc3ccc(N4C[C@H]5NCCO[C@@H]5C4)nc3)CCN21 [Example 124, 5-[(4R,9aS)-8-[2-[6-[(4aR,7aR)-3,4,4a,5,7,7a-hexahydro-2H-pyrrolo[3,4-b][1,4]oxazin-6-yl]-3-pyridyl]ethyl]-4-methyl-3,4,6,7,9,9a-hexahydro-1H-pyrazino[1,2-a]pyrazin-2-yl]quinoline-8-carbonitrile]
1 | 7 | C[C@H]1CN(c2ccc(C#N)c3ncccc23)C[C@@H]2CN(c3ccc([C@@H]4CNCCO4)cc3)CCN21 [Example 125, 5-[(4S,9aS)-4-methyl-8-[4-[(2R)-morpholin-2-yl]phenyl]-3,4,6,7,9,9a-hexahydro-1H-pyrazino[1,2-a]pyrazin-2-yl]quinoline-8-carbonitrile]
